Patent publication US10590086B2, “Pharmaceutical compound” (IOmet Pharma Ltd., priority 2014, dated 2020)

Assays:
IDO = IDO (Homo sapiens, UniProt P14902); experiment: SKOV3 kynurenine cell-based assay (IDO induced by IFN-γ); set-up: IDO expression was induced in the SKOV3 cells by the addition of 500 ng/ml IFN-γ; endogenous in cells; host or cells: SKOV3 (human ovarian adenocarcinoma), induced with IFN-γ; settings: SKOV3 human ovarian adenocarcinoma cells, 500 ng/ml IFN-γ, 48 hours, 500 μM L-tryptophan; read-out: SKOV3 Kynurenine cell based assay pIC50 (converted)
Experimental: (§1) Exemplary compounds of the invention were prepared, and tested to determine their effect as TDO and/or IDO inhibitors. Two different assays were employed: 1. a cell-based assay for detecting the effect of test compounds on kynurenine production in two different cancer cell types. This assay utilised cancer cells which expressed either TDO or IDO and as such was used as a means of testing compound activity at these two enzymes in a cell-based context. 2. a TDO and IDO biochemical coupled assay which utilised recombinantly produced and purified TDO and IDO enzymes in combination with the enzyme formamidase. This coupled enzyme system allowed conversion of N-formylkynurenine produced by TDO or IDO activity to kynurenine which was then quantified by fluorescence following addition of Erhlich's Reagent The protocols for these are set out below.
(§2) Cell Based Assay for Detection of Kynurenine Produced by TDO and/or IDO
(§3) A172 (human glioblastoma) and SKOV3 (human ovarian adenocarcinoma) cells were seeded in a 96 well plate at 30,000 or 40,000 cells per well respectively in phenol red-free RPMI supplemented with 10% FCS, 2 mM L-glutamine and 500 μM L-tryptophan. IDO expression was induced in the SKOV3 cells by the addition of 500 ng/ml IFN-γ. Cells were incubated at 37° C. with or without the addition of test compound. After 48 hours, the cells were removed by centrifugation and Erhlich's reagent was added to the supernatant. The Erhlich's reagent was incubated for 5 minutes before the absorbance was read at 490 nm.

TDO = TDO (Homo sapiens, UniProt P48775); experiment: A172 kynurenine cell-based assay; set-up: This assay utilised cancer cells which expressed either TDO or IDO; endogenous in cells; host or cells: A172 (human glioblastoma); settings: A172 human glioblastoma cells, 48 hours, 500 μM L-tryptophan; read-out: A172 Kynurenine cell based assay pIC50 (converted)
Experimental: as §1, §2, §3

TDO, sequence (P48775 whole entry): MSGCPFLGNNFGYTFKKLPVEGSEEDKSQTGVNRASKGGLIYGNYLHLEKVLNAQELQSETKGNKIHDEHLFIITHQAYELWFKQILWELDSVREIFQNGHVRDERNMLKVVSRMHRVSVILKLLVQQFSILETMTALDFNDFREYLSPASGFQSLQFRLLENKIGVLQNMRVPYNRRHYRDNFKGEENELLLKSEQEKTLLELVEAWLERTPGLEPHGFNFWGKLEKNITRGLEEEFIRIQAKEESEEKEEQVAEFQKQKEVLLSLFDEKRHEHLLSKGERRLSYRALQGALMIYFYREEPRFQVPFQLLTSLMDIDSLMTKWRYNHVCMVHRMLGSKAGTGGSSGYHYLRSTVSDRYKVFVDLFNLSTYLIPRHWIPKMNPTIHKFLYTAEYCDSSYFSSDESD
IDO, sequence (P14902 whole entry): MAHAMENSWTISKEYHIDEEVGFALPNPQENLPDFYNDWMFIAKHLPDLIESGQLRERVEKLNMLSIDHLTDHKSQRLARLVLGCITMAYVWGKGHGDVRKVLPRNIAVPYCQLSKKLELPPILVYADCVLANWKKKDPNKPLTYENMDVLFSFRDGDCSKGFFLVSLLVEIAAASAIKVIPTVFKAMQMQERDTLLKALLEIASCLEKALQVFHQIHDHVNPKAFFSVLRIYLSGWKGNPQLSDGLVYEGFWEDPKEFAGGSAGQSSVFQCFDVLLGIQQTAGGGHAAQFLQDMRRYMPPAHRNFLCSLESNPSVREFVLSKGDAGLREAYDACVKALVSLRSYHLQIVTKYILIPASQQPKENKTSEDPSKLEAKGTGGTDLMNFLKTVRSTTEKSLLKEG

| SMILES | IC50 (IDO) | IC50 (TDO) |
| --- | --- | --- |
| CCCS(=O)(=O)N1CCN(c2cc(Cl)cc3[nH]ncc23)CC1 [Compound 63] | 3.24 to 31.6 µM | < 3.16 µM |
| COCCS(=O)(=O)N1CCN(c2cc(Cl)cc3[nH]ncc23)CC1 [Compound 64] | 3.24 to 31.6 µM | < 3.16 µM |
| CN(C)C(=O)CN1CCN(c2cc(Cl)cc3[nH]ncc23)CC1 [Compound 65] | 32.4 to 100 µM | 3.24 to 31.6 µM |
| Cc1n[nH]c2cc(Cl)cc(N3CCN(S(C)(=O)=O)CC3)c12 [Compound 66] | 3.24 to 31.6 µM | 3.24 to 31.6 µM |
| CC(C)c1cc(N2CCN(S(C)(=O)=O)CC2)c2cn[nH]c2c1 [Compound 67] | 32.4 to 100 µM | 3.24 to 31.6 µM |
| CC(=O)N1CCN(c2cc(C(C)C)cc3[nH]ncc23)CC1 [Compound 68] | > 100 µM | 3.24 to 31.6 µM |
| COc1cc(N2CCN(S(C)(=O)=O)CC2)c2cn[nH]c2c1 [Compound 69] | > 100 µM | 3.24 to 31.6 µM |
| COc1cc(N2CCN(C(C)=O)CC2)c2cn[nH]c2c1 [Compound 70] | > 100 µM | 3.24 to 31.6 µM |
| CC(=O)N1CCCN(c2cc(Cl)cc3[nH]ncc23)CC1 [Compound 71] | 3.24 to 31.6 µM | < 3.16 µM |
| CS(=O)(=O)N1CCCN(c2cc(Cl)cc3[nH]ncc23)CC1 [Compound 72] | 3.24 to 31.6 µM | < 3.16 µM |
| CC1CN(c2cc(Cl)cc3[nH]ncc23)CCN1S(C)(=O)=O (stereo not shown) [Compound 73] | < 3.16 µM | < 3.16 µM |
| CC(=O)N1CCN(c2cc(Cl)cc3[nH]ncc23)CC1C (stereo not shown) [Compound 74] | 3.24 to 31.6 µM | < 3.16 µM |
| CS(=O)(=O)N1CCC(Nc2cccc3[nH]ncc23)CC1 [Compound 75] | > 100 µM | 32.4 to 100 µM |
| CC(=O)N1CCN(c2cc(Br)cc3[nH]ncc23)CC1 [Compound 76] | 3.24 to 31.6 µM | < 3.16 µM |
| CS(=O)(=O)N1CC=C(c2cc(Cl)cc3[nH]ncc23)CC1 [Compound 77] | 3.24 to 31.6 µM | < 3.16 µM |
| CC(=O)N1CCN(c2cc(C(F)(F)F)cc3[nH]ncc23)CC1(C)C [Compound 79] | < 3.16 µM | < 3.16 µM |
| CNC(=O)N1CCN(c2cc(Cl)cc3[nH]ncc23)CC1 [Compound 80] | 3.24 to 31.6 µM | < 3.16 µM |
| NS(=O)(=O)N1CCN(c2cc(Cl)cc3[nH]ncc23)CC1 [Compound 81] | 3.24 to 31.6 µM | < 3.16 µM |
| CN(C)C(=O)N1CCN(c2cc(Cl)cc3[nH]ncc23)CC1 [Compound 82] | 3.24 to 31.6 µM | < 3.16 µM |
| CCC1CN(c2cc(Cl)cc3[nH]ncc23)CCN1S(C)(=O)=O (stereo not shown) [Compound 83] | 3.24 to 31.6 µM | < 3.16 µM |
| CCC1CN(c2cc(Cl)cc3[nH]ncc23)CCN1C(C)=O (stereo not shown) [Compound 84] | 3.24 to 31.6 µM | < 3.16 µM |
| OCCOc1cc(Cl)cc2[nH]ncc12 [Compound 85] | 32.4 to 100 µM | 3.24 to 31.6 µM |

| SMILES | IC50 (IDO) | IC50 (TDO) |
| --- | --- | --- |
| CC(=O)N1CCC(c2cc(C3CC3)cc3[nH]ncc23)CC1 [Compound 86] | 3.24 to 31.6 µM | 3.24 to 31.6 µM |
| CS(=O)(=O)N1CCC(c2cc(C3CC3)cc3[nH]ncc23)CC1 [Compound 87] | 3.24 to 31.6 µM | < 3.16 µM |
| O=C1NCC2CN(c3cc(Cl)cc4[nH]ncc34)CCN12 (stereo not shown) [Compound 88] | 3.24 to 31.6 µM | < 3.16 µM |
| O=S1(=O)CCC2CN(c3cc(Cl)cc4[nH]ncc34)CCN21 (stereo not shown) [Compound 89] | 3.24 to 31.6 µM | < 3.16 µM |
| CC(=O)N1CCN(c2cc(Br)cc3[nH]ncc23)CC1(C)C [Compound 90] | < 3.16 µM | < 3.16 µM |
| Clc1cc(N2CCN(c3ccccc3)CC2)c2cn[nH]c2c1 [Compound 92] | 3.24 to 31.6 µM | < 3.16 µM |
| CC(=O)N1CCN(c2cc(Cl)cc3[nH]ncc23)CC12CC2 [Compound 93] | 3.24 to 31.6 µM | < 3.16 µM |
| CS(=O)(=O)N1CCN(c2cc(Cl)cc3[nH]ncc23)CC12CC2 [Compound 94] | 3.24 to 31.6 µM | < 3.16 µM |
| CN1CCN(c2cc(Cl)cc3[nH]ncc23)CC1 [Compound 95] | > 100 µM | 3.24 to 31.6 µM |
| CS(=O)(=O)N1CCN(c2cc(Br)cc3[nH]ncc23)CC1 [Compound 96] | 3.24 to 31.6 µM | < 3.16 µM |
| CS(=O)(=O)NCC1CCN(c2cc(Cl)cc3[nH]ncc23)CC1 [Compound 98] | 3.24 to 31.6 µM | < 3.16 µM |
| CC(=O)N1CCC(c2cc(C(F)(F)F)cc3[nH]ncc23)CC1 [Compound 99] | 3.24 to 31.6 µM | < 3.16 µM |
| CS(=O)(=O)N1CCC(c2cc(C(F)(F)F)cc3[nH]ncc23)CC1 [Compound 100] | 3.24 to 31.6 µM | < 3.16 µM |
| CS(=O)(=O)N1CCN(c2cc(C3CC3)cc3[nH]ncc23)CC1 [Compound 101] | > 100 µM | 3.24 to 31.6 µM |
| C[C@@H]1CN(c2cc(Cl)cc3[nH]ncc23)C[C@@H](C)N1S(C)(=O)=O [Compound 102] | 3.24 to 31.6 µM | < 3.16 µM |
| CC(=O)N1[C@H](C)CN(c2cc(Cl)cc3[nH]ncc23)C[C@H]1C [Compound 103] | > 100 µM | < 3.16 µM |
| CC(=O)N1CCN(c2cc(Cl)cc3c2cnn3C)CC1(C)C [Compound 104] | 32.4 to 100 µM | 3.24 to 31.6 µM |
| Cn1ncc2c(N3CCN(S(C)(=O)=O)C(C)(C)C3)cc(Cl)cc21 [Compound 105] | 32.4 to 100 µM | > 100 µM |
| O=C(C1CC1)N1CCN(c2cc(Cl)cc3[nH]ncc23)CC1 [Compound 107] | 3.24 to 31.6 µM | < 3.16 µM |
| CC(C)C(=O)N1CCN(c2cc(Cl)cc3[nH]ncc23)CC1 [Compound 108] | 3.24 to 31.6 µM | < 3.16 µM |
| CCC(=O)N1CCN(c2cc(Cl)cc3[nH]ncc23)CC1 [Compound 109] | 3.24 to 31.6 µM | < 3.16 µM |
| NC(=O)N1CCN(c2cc(Cl)cc3[nH]ncc23)CC1 [Compound 110] | 3.24 to 31.6 µM | < 3.16 µM |

| SMILES | IC50 (IDO) | IC50 (TDO) |
| --- | --- | --- |
| CC(C)(O)C(=O)N1CCN(c2cc(Cl)cc3[nH]ncc23)CC1 [Compound 111] | 3.24 to 31.6 µM | < 3.16 µM |
| COCC(=O)N1CCN(c2cc(Cl)cc3[nH]ncc23)CC1 [Compound 112] | 3.24 to 31.6 µM | < 3.16 µM |
| CC(=O)N1[C@H](C)CN(c2cc(Cl)cc3[nH]ncc23)C[C@@H]1C [Compound 113] | 3.24 to 31.6 µM | < 3.16 µM |
| CNS(=O)(=O)N1CCN(c2cc(Cl)cc3[nH]ncc23)CC1 [Compound 114] | 3.24 to 31.6 µM | < 3.16 µM |
| O=S(=O)(Cc1ccccc1)N1CCC(c2cc(Cl)cc3[nH]ncc23)CC1 [Compound 115] | 3.24 to 31.6 µM | < 3.16 µM |
| O=C(N1CCN(c2cc(Cl)cc3[nH]ncc23)CC1)C1(O)CC1 [Compound 116] | 3.24 to 31.6 µM | < 3.16 µM |
| CN(C1CCN(c2cc(Cl)cc3[nH]ncc23)CC1)S(C)(=O)=O [Compound 117] | 3.24 to 31.6 µM | < 3.16 µM |
| CC(C)(F)C(=O)N1CCN(c2cc(Cl)cc3[nH]ncc23)CC1 [Compound 118] | 3.24 to 31.6 µM | < 3.16 µM |
| CN(C)S(=O)(=O)N1CCN(c2cc(Cl)cc3[nH]ncc23)CC1 [Compound 119] | 3.24 to 31.6 µM | < 3.16 µM |
| CS(=O)(=O)N1CCN(c2cccc3c(N)noc23)CC1 [Compound 120] | 3.24 to 31.6 µM | > 100 µM |
| CC(=O)N1CCN(c2cc(C3CC3)cc3[nH]ncc23)CC1 [Compound 121] | > 100 µM | 3.24 to 31.6 µM |
| CN1CC2CN(c3cc(Cl)cc4[nH]ncc34)CCN2C1=O (stereo not shown) [Compound 122] | 3.24 to 31.6 µM | < 3.16 µM |
| CS(=O)(=O)N1CCC(O)(c2cc(Cl)cc3[nH]ncc23)CC1 [Compound 123] | 3.24 to 31.6 µM | < 3.16 µM |
| CS(=O)(=O)N1CCC(F)(c2cc(Cl)cc3[nH]ncc23)CC1 [Compound 124] | 3.24 to 31.6 µM | < 3.16 µM |
| OC1CCCN(c2cc(Cl)cc3[nH]ncc23)C1 (stereo not shown) [Compound 125] | 32.4 to 100 µM | < 3.16 µM |
| CC(=O)N1CCN(c2cc(C3CC3)cc3[nH]ncc23)CC1(C)C [Compound 126] | 3.24 to 31.6 µM | < 3.16 µM |
| CC1(C)CN(c2cc(C3CC3)cc3[nH]ncc23)CCN1S(C)(=O)=O [Compound 127] | 3.24 to 31.6 µM | < 3.16 µM |
| CC(=O)N1CC=C(c2cc(Br)cc3[nH]ncc23)CC1 [Compound 128] | 3.24 to 31.6 µM | < 3.16 µM |
| O=C(CO)N1CCN(c2cc(Cl)cc3[nH]ncc23)CC1 [Compound 129] | 3.24 to 31.6 µM | < 3.16 µM |
| CN(CC1CCN(c2cc(Cl)cc3[nH]ncc23)CC1)S(C)(=O)=O [Compound 130] | 3.24 to 31.6 µM | < 3.16 µM |
| CS(=O)(=O)N1CCN(c2cc(C3CCCC3)cc3[nH]ncc23)CC1 [Compound 131] | 32.4 to 100 µM | > 100 µM |
